Read-outs that look alike come from different tables or passages of the source.
How the values were obtained:
recombinant human GALK1 = recombinant human GALK1 (Homo sapiens, UniProt P51570); experiment: hGALK1 biochemical activity assay (Kinase-Glo Plus, ATP depletion)
Method in brief: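 Turnover is measured as ATP depletion by Kinase-Glo Plus luminescence after a 1 h room-temperature reaction. Compounds span 11 concentrations, 57.4 μM–0.97 nM, in final 20 mM HEPES pH 8.0 with 5 mM MgCl2. The substrate solution held 35 μM ATP; the added solution held 5 nM human or mouse GALK1 and 100 μM galactose.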

recombinant mouse GALK1 = recombinant mouse GALK1 (Mus musculus, UniProt Q9R0N0); experiment: mGALK1 biochemical activity assay (Kinase-Glo Plus, ATP depletion)
Chain of recombinant mouse GALK1 (Q9R0N0 whole entry): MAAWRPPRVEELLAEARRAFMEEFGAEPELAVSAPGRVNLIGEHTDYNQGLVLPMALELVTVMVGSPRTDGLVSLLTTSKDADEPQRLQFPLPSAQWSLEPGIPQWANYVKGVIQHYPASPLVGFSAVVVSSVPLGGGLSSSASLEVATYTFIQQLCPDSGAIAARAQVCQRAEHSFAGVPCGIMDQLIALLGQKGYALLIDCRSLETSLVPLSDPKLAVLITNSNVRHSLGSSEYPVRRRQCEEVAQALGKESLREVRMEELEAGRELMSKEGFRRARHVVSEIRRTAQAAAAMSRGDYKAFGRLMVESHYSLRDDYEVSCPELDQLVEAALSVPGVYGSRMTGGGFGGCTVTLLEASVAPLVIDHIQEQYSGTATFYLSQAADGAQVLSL
Method in brief: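 Recombinant GALK1 (5 nM) with 100 μM galactose; GALK1 turnover read as ATP depletion by Kinase-Glo Plus luminescence. Reaction ran 1 h at room temperature before detection reagent was added.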

[1] = aqueous kinetic solubility
[2] = rat microsomal stability (RLM); settings: microsomal half-life
[3] = recombinant mouse GALK1, Kinase-Glo Plus ATP depletion
[4] = recombinant human GALK1, Kinase-Glo Plus ATP depletion, read-out: hGALK
[5] = recombinant mouse GALK1, Kinase-Glo Plus ATP depletion, read-out: mGALK
[6] = Tables 2-15, 35 μM ATP, 100 μM galactose, 1 h, bracketed figure after some values (e.g. −1.2) is undefined and not reported, read-out: hGALK IC50
[7] = Tables 2-15, 35 μM ATP, 100 μM galactose, 1 h, bracketed figure after some values is undefined and not reported, read-out: mGALK IC50
[8] = Tables 2-15, 35 μM ATP, 100 μM galactose, 1 h, bracketed figure after some values is undefined and not reported

Chain of recombinant human GALK1 (P51570 whole entry): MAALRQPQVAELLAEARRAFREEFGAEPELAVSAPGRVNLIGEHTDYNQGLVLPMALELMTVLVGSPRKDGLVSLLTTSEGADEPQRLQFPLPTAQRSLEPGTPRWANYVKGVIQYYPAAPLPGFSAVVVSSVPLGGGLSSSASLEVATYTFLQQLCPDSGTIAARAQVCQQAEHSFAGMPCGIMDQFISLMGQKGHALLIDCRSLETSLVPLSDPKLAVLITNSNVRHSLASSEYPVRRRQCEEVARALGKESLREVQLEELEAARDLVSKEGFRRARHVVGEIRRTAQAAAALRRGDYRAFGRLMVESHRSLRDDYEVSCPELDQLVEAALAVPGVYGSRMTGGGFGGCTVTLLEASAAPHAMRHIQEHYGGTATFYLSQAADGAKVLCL

Row | SMILES | hGALK (μM) (recombinant human GALK1; recombinant human GALK1, Kinase-Glo Plus ATP depletion) | mGALK (μM) (recombinant mouse GALK1; [3]) | Perm. (1 × 10^−6 cm/sec) (PAMPA permeability) | Sol. [1] | Metab. Stabil. (m) [2] | IC50 (recombinant human GALK1; [4]) | IC50 (recombinant mouse GALK1; [5]) | IC50 (recombinant human GALK1; [6]) | IC50 (recombinant mouse GALK1; [7]) | mGALK IC50 (recombinant mouse GALK1; [8])
1 | CC1=C(C(=O)Nc2nnc(-c3cccnc3)s2)C(c2ccccc2Cl)N=C(Nc2nc3ccc(C)cc3o2)N1 (stereo not shown) [Compound 99, 4-(2-chlorophenyl)-2-((6-methylbenzo[d]oxazol-2-yl)amino)-6-methyl-N-(5-(pyridin-3-yl)-1,3,4-thiadiazol-2-yl)-1,4-dihydropyrimidine-5-carboxamide] | in- active | in- active | <2.9 1 × 10^−6 cm/sec | <1 µg/mL | >30 m | – | – | – | – | –
2 | CC1=C(C(=O)Nc2nnc(-c3cccnc3)s2)C(c2ccccc2Cl)N=C(Nc2nc3ccc(F)cc3o2)N1 (stereo not shown) [Compound 100, 4-(2-chlorophenyl)-2-((6-fluorobenzo[d]oxazol-2-yl)amino)-6-methyl-N-(5-(pyridin-3-yl)-1,3,4-thiadiazol-2-yl)-1,4-dihydropyrimidine-5-carboxamide] | – | – | <9.9 1 × 10^−6 cm/sec | <1 µg/mL | >30 m | 17.2 µM | 38.5 µM | – | – | –
3 | CC1=C(C(=O)Nc2cc(C(=O)O)ccn2)C(c2ccc(C)cc2Cl)N=C(Nc2nc3ncccc3o2)N1 (stereo not shown) [Compound 102, 2-(4-(2-chloro-4-methylphenyl)-6-methyl-2-(oxazolo[4,5-b]pyridin-2-ylamino)-1,4-dihydropyrimidine-5-carboxamido)isonicotinic acid] | – | – | <1 1 × 10^−6 cm/sec | >51 µg/mL | >30 m | 4.85 µM | 19.3 µM | 4.85 µM | 19.3 µM | –
4 | CC1=C(C(=O)NCc2cnn(C)c2)C(c2ccc(C)cc2Cl)N=C(Nc2nc3cnccc3o2)N1 (stereo not shown) [Compound 104, 4-(2-chloro-4-methylphenyl)-6-methyl-N-((1-methyl-1H-pyrazol-4-yl)methyl)-2-(oxazolo[4,5-c]pyridin-2-ylamino)-1,4-dihydropyrimidine-5-carboxamide] | – | – | 127.62 1 × 10^−6 cm/sec | >49 µg/mL | 5.12 m | 3.06 µM | 12.2 µM | 3.06 µM | 12.2 µM | –
5 | CC1=C(C(=O)NCc2cnn(C)c2)C(c2ccc(C)cc2Cl)N=C(Nc2nc3ncccc3o2)N1 (stereo not shown) [Compound 105, 4-(2-chloro-4-methylphenyl)-6-methyl-N-((1-methyl-1H-pyrazol-4-yl)methyl)-2-(oxazolo[4,5-b]pyridin-2-ylamino)-1,4-dihydropyrimidine-5-carboxamide] | – | in- active | 62.84 1 × 10^−6 cm/sec | >49 µg/mL | 6.149 m | 15.3 µM | – | 15.3 µM | – | inactive
6 | CC1=C(C(=O)Nc2cc(C(=O)O)ccn2)C(c2ccc(C)cc2Cl)N=C(Nc2nc3cnccc3o2)N1 (stereo not shown) [Compound 106, 2-(4-(2-chloro-4-methylphenyl)-6-methyl-2-(oxazolo[4,5-c]pyridin-2-ylamino)-1,4-dihydropyrimidine-5-carboxamido)isonicotinic acid] | – | – | <1 1 × 10^−6 cm/sec | >51 µg/mL | >30 m | 0.86 µM | 6.85 µM | 0.86 µM | 6.85 µM | –
7 | CC1=C(C(=O)NCc2cnn(C)c2)C(c2ccc(C)cc2Cl)N=C(Nc2nc3cccnc3o2)N1 (stereo not shown) [Compound 107, 4-(2-chloro-4-methylphenyl)-6-methyl-N-((1-methyl-1H-pyrazol-4-yl)methyl)-2-(oxazolo[5,4-b]pyridin-2-ylamino)-1,4-dihydropyrimidine-5-carboxamide] | – | in- active | 355.44 1 × 10^−6 cm/sec | 4.8 µg/mL | 3.664 m | 17.2 µM | – | 17.2 µM | – | inactive
8 | CC1=C(C(=O)Nc2cc(C(=O)O)ccn2)C(c2ccc(C)cc2Cl)N=C(Nc2nc3cccnc3o2)N1 (stereo not shown) [Compound 108, 2-(4-(2-chloro-4-methylphenyl)-6-methyl-2-(oxazolo[5,4-b]pyridin-2-ylamino)-1,4-dihydropyrimidine-5-carboxamido)isonicotinic acid] | – | in- active | <1 1 × 10^−6 cm/sec | >51 µg/mL | >30 m | 12.2 µM | – | 12.2 µM | – | inactive
9 | CC1=C(C(=O)Nc2cc(C(=O)O)ccn2)C(c2ccc(C)cc2Cl)N=C(Nc2nc3c(o2)CCCC3)N1 (stereo not shown) [Compound 109, 2-(4-(2-chloro-4-methylphenyl)-6-methyl-2-((4,5,6,7-tetrahydrobenzo[d]oxazol-2-yl)amino)-1,4-dihydropyrimidine-5-carboxamido)isonicotinic acid] | – | – | <1.8 1 × 10^−6 cm/sec | >52 µg/mL | >30 m | 3.06 µM | 4.32 µM | 3.06 µM | 4.32 µM | –
10 | CC1=C(C(=O)NCc2cnn(Cc3ccccc3)c2)C(c2ccc(C)cc2Cl)N=C(Nc2nc3ccc(F)cc3o2)N1 (stereo not shown) [Compound 110, N-((1-benzyl-1H-pyrazol-4-yl)methyl)-4-(2-chloro-4-methylphenyl)-2-((6-fluorobenzo[d]oxazol-2-yl)amino)-6-methyl-1,4-dihydropyrimidine-5-carboxamide] | – | – | 159.0 1 × 10^−6 cm/sec | <1 µg/mL | 2.74 m | 1.72 µM | 5.44 µM | 1.72 µM | 5.44 µM | –
11 | CC1=C(C(=O)NCc2c(C)nn(C)c2C)C(c2ccc(C)cc2Cl)N=C(Nc2nc3ccc(F)cc3o2)N1 (stereo not shown) [Compound 111, 4-(2-chloro-4-methylphenyl)-2-((6-fluorobenzo[d]oxazol-2-yl)amino)-6-methyl-N-((1,3,5-trimethyl-1H-pyrazol-4-yl)methyl)-1,4-dihydropyrimidine-5-carboxamide] | – | – | 16.91 1 × 10^−6 cm/sec | <1 µg/mL | 2.66 m | 3.85 µM | 4.85 µM | 3.85 µM | 4.85 µM | –
